According to patent US10947252B2, “Inhibitors of KEAP1-Nrf2 protein-protein interaction” (Janssen Pharmaceutica NV, priority 2018, dated 2021):

What was measured:
[1] = test system: Glo-Response ARE-luc2P HEK293 cell line; test: ARE luciferase reporter cell-based assay; details: Homo sapiens, HEK293, 24 h, average of results obtained;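 note: luciferase signal tracks Nrf2 activation of the ARE once compounds disrupt KEAP1-Nrf2 binding, read with One-Glo reagent, DMSO serving as low control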
Description: The ARE assay utilizes a luciferase reporter cell line where the signal is proportional to NrF2 activation of the ARE. The cell line is commercially available from Promega and was prepared by stably transfecting HEK293 cells with a vector (pGL4.11) which contains the ARE response element upstream of a minimal promoter. The promoter drives expression of luc2 firefly luciferase gene. Upon disruption of KEAP1-Nrf2 binding by compound, Nrf2 translocates into the nucleus where it binds to the ARE and activates transcription of luciferase.
The materials used in this ARE assay are as follows: Glo-Response ARE-luc2P HEK293 cell line and One-Glo Luciferase Assay System were purchased from Promega (Madison, Wis.). Dulbecco's Modified Eagle medium ((DMEM), low glucose, GlutaMAX, pyruvate), fetal bovine serum (certified, heat inactivated), hygromycin B, Dulbecco's phosphate-buffered saline were purchased from Life Technologies (Grand Island, N.Y.). Penicillin, streptomycin solution (100×) and 0.05% trypsin-EDTA were purchased from Corning (Manassas, Va.). DMSO was purchased from EMD Millipore.
The ARE assay protocol is as follows: cells were maintained in growth medium (DMEM+10% FBS, 200 μg/mL hygromycin B, p-s) between 20-90% confluency by splitting twice per week. One day before the assay, cells were trypsinized, counted to determine viable cell count, and re-suspended in assay medium (DMEM+10% FBS, p-s) at 250,000 cells/mL. […] 100% DMSO was used as the low control. A 11-point dose series of the control compound was included on every plate. Compounds were spotted to an intermediate plate (Greiner #781280 V-bottom 384 well plate) using the Echo acoustic dispenser (Labscyte San Jose, Calif.). Spot size was 240 nL.
On the day of the assay, 60 mL per well of assay medium was added to the pre-spotted plate to make 2× compound stocks using the Combi (Thermo Waltham, Mass.). Compound and medium were mixed on the Janus and 20 mL of 2×compound stock was added to the cell plate which already contained 20 mL of assay medium from cell plating. […] The plates were returned to the tissue culture incubator for 24 hours.
The next day, luciferase activity was measured according to the manufacturer's protocol for One-Glo luciferase reagent. The plates were removed from the incubator and allowed to equilibrate to room temperature for 30 min. Forty microliters of One-Glo reagent (equilibrated to room temperature) was added per well using the Combi. The plates were mixed on an orbital shaker for 3 min. Luminescence was read on the BMG Pherastar multiplate reader (Cary, N.C.) using the luminescence protocol (1 sec interval).
The dose-response data were analyzed in Genedata Screener using 4PL nonlinear regression model. Raw luminescence counts as well as normalized values were used for data analysis.

[2] = molecular target: Kelch domain of human KEAP1 (321-624 aa) (Homo sapiens (Human), UniProt Q14145); test: KEAP1 KELCH ThermoFluor binding assay; details: KEAP Kelch […], 1,8-ANS, pH 7.0, average of results obtained, read-out: Tf Kd;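 note: Ligand-induced melting temperature shift of E. coli-expressed KEAP1 Kelch protein, Kd estimated from concentration-response curves of ΔTm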
Chain of Kelch domain of human KEAP1 (321-624 aa) (Q14145 321-624): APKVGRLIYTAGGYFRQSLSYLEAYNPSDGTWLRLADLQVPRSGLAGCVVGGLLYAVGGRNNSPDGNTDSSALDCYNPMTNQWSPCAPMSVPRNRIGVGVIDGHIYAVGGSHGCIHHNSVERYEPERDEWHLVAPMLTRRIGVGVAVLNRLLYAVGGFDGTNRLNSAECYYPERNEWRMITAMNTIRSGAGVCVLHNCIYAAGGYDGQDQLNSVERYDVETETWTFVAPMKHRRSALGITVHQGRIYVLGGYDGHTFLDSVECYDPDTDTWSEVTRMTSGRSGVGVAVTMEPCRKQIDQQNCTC
Excerpt: The shift in the melting point described as a ΔTm is proportional to the concentration and affinity of the ligand. The compound potency may be compared as a rank order of either ΔTm values at a single compound concentration or in terms of KD values, estimated from concentration response curves.
The protein was expressed in E. coli with 6His tag that was cleaved prior to receipt for use.
Protein (KEAP Kelch) and compound solutions were dispensed into black 384-well polypropylene PCR microplates (Abgene) and overlayed with silicone oil (1 μL, Fluka, type DC 200) to prevent evaporation.

SMILES: Cc1ccc([C@@H](CC(=O)O)c2ccn3c(C(F)(F)F)nnc3c2C)nc1CN1CC2(CC2)Oc2ncccc2S1(=O)=O (single isomer, unassigned) [Example 482, (*S)-3-(6-((1′,1′-Dioxidospiro[cyclopropane-1,4′-pyrido[2,3-b][1,4,5]oxathiazepin]-2′(3′H)-yl)methyl)-5-methylpyridin-2-yl)-3-(8-methyl-3-(trifluoromethyl)-[1,2,4]triazolo[4,3-a]pyridin-7-yl)propanoic Acid]
- EC50 [1]: 701 nM
- Kd [2]: < 1 nM

SMILES: Cc1ccc([C@H](CC(=O)O)c2ccn3c(C(F)F)nnc3c2C)cc1CN1CC2(CCOCC2)Oc2ncc(F)cc2S1(=O)=O (single isomer, unassigned) [Example 533, (*S)-3-(3-(Difluoromethyl)-8-methyl-[1,2,4]triazolo[4,3-a]pyridin-7-yl)-3-(3-((8′-fluoro-1′,1′-dioxido-2,3,5,6-tetrahydrospiro[pyran-4,4′-pyrido[2,3-b][1,4,5]oxathiazepin]-2′(3′H)-yl)methyl)-4-methylphenyl)propanoic Acid]
- EC50 [1]: 31.3 nM
- Kd [2]: < 1 nM

SMILES: Cc1ccc([C@H](c2cc(C)n3c(C(F)(F)F)nnc3c2C)C(C)C(=O)O)cc1CN1C[C@@H]2CCCCN2c2ncccc2S1(=O)=O (relative stereo) [Example 133, (3*R)-3-(5,8-Dimethyl-3)-(trifluoromethyl)-[1,2,4-triazolo[4,3-a]pyridine-7-yl)-3-(3-(((*S)-5,5-dioxido-7,7a,8,9,10,11-hexahydro-6H-dipyrido[2,1-d:2′,3′-f][1,2,5]thiadiazepin-6-yl)methyl)-4-methylphenyl)-2-methylpropanoic Acid]
- EC50 [1]: 2 nM
- Kd [2]: < 1 nM

SMILES: CCn1nnc2c(C)c([C@@H](c3ccc(C)c(CN4CC5(CCOCC5)Oc5ncccc5S4(=O)=O)n3)C(C)(C)C(=O)O)ccc21 (single isomer, unassigned) [Example 556, (*R)-3-(6-((1′,1′-Dioxido-2,3,5,6-tetrahydrospiro[pyran-4,4′-pyrido[2,3-b][1,4,5]oxathiazepin]-2′(3′H)-yl)methyl)-5-methylpyridin-2-yl)-3-(1-ethyl-4-methyl-1H-benzo[d][1,2,3]triazol-5-yl)-2,2-dimethylpropanoic Acid]
- EC50 [1]: 1750 nM
- Kd [2]: 4940 nM

SMILES: Cc1ccc([C@@H](CC(=O)O)c2ccc3c(nnn3C3CC3)c2C)cc1CN1C[C@@]2(C)CCCN2c2ncccc2S1(=O)=O (single isomer, unassigned) [Example 223, (*R)-3-(1-Cyclopropyl-4-methyl-1H-benzo[d][1,2,3]triazol-5-yl)-3-(4-methyl-3-(((*R)-7a-methyl-5,5-dioxido-7a,8,9,10-tetrahydropyrido[2,3-f]pyrrolo[2,1-d][1,2,5]thiadiazepin-6(7H)-yl)methyl)phenyl)propanoic Acid]
- EC50 [1]: 5460 nM
- Kd [2]: 190 nM

SMILES: Cc1ccc(C(CC(=O)O)c2ccn3c(C)nnc3c2)cc1CN1CC(C)(C)Oc2ccccc2S1(=O)=O (racemic) [Example 161, (R/S)-3-(3-((4,4-Dimethyl-1,1-dioxido-3,4-dihydro-2H-benzo[b][1,4,5]oxathiazepin-2-yl)methyl)-4-methylphenyl)-3-(3-methyl-[1,2,4]triazolo[4,3-a]pyridin-7-yl)propanoic Acid]
- EC50 [1]: 15900 nM
- Kd [2]: 2.8 nM

SMILES: Cc1ccc([C@H](CC(=O)O)c2ccn3c(C)nnc3c2)cc1CN1C[C@H]2CCCN2c2ncccc2S1(=O)=O (single isomer, unassigned) [Example 163, (*S)-3-(3-(((R)-5,5-Dioxido-7a,8,9,10-tetrahydropyrido[2,3-f]pyrrolo[2,1-d][1,2,5]thiadiazepin-6(7H)-yl)methyl)-4-methylphenyl)-3-(3-methyl-[1,2,4]triazolo[4,3-a]pyridin-7-yl)propanoic Acid]
- EC50 [1]: 2750 nM
- Kd [2]: < 1 nM

SMILES: Cc1ccc([C@@H](c2ccn3c(C(F)(F)F)nnc3c2C)C(C)(C)C(=O)O)cc1CN1CC2(CCOCC2)Oc2nc(OCCN3CCCC3)c(C)cc2S1(=O)=O (single isomer, unassigned) [Example 370, (*S)-2,2-Dimethyl-3-(4-methyl-3-((8′-methyl-1′,1′-dioxido-7′-(2-(pyrrolidin-1-yl)ethoxy)-2,3,5,6-tetrahydrospiro[pyran-4,4′-pyrido[2,3-b][1,4,5]oxathiazepin]-2′(3′H)-yl)methyl)-4-methylphenyl)-2,2-dimethyl-3-(8-methyl-3-(trifluoromethyl)-[1,2,4]triazolo[4,3-a][pyridine-7-yl)propanoic Acid]
- EC50 [1]: 11.3 nM
- Kd [2]: < 1 nM

SMILES: Cc1ccc([C@H](c2ccn3c(C(F)(F)F)nnc3c2C)C(C)(C)C(=O)O)cc1CN1CC2(CCOCC2)Oc2nc(OCCN3CCC(F)(F)CC3)ccc2S1(=O)=O (single isomer, unassigned) [Example 360, (*R)-3-(3-((7′-(2-(4,4-Difluoropiperidin-1-yl)ethoxy)-1′,1′-dioxido-2,3,5,6-tetrahydrospiro[pyran-4,4′-pyrido[2,3-b][1,4,5]oxathiazepin]-2′(3′H)-yl)methyl)-4-methylphenyl)-2,2-dimethyl-3-(8-methyl-3-(trifluoromethyl)-[1,2,4]triazolo[4,3-a][pyridine-7-yl)propanoic Acid]
- EC50 [1]: 9.3 nM
- Kd [2]: < 1 nM

SMILES: Cc1cnc2c(c1)S(=O)(=O)N(Cc1cc([C@H](c3ccc4c(nnn4C4CC4)c3C)C(C)(C)C(=O)O)ccc1C)CC1(CNC1)O2 (single isomer, unassigned) [Example 645, (*R)-3-(1-Cyclopropyl-4-methyl-1H-benzo[d][1,2,3]triazol-5-yl)-2,2-dimethyl-3-(4-methyl-3-((8′-methyl-1′,1′-dioxidospiro[azetidine-3,4′-pyrido[2,3-b][1,4,5]oxathiazepin]-2′(3′H)-yl)methyl)phenyl)propanoic Acid]
- EC50 [1]: 1.5 nM
- Kd [2]: < 1 nM

SMILES: Cc1ccc([C@@H](CC(=O)O)c2ccn3c(C4CC4)nnc3c2C)cc1CN1C[C@H]2CCCN2c2ncccc2S1(=O)=O (single isomer, unassigned) [Example 169, (*R)-3-(3-Cyclopropyl-8-methyl-[1,2,4]triazolo[4,3-a]pyridin-7-yl)-3-(3-(((R)-5,5-dioxido-7a,8,9,10-tetrahydropyrido[2,3-f]pyrrolo[2,1-d][1,2,5]thiadiazepin-6(7H)-yl)methyl)-4-methylphenyl)propanoic Acid]
- EC50 [1]: 5910 nM
- Kd [2]: 1.2 nM

SMILES: Cc1ccc([C@H](c2ccn3c(C(F)F)nnc3c2C)C(C)(C)C(=O)O)nc1CN1CC2(CC2)Oc2nc(OCCN3CCCCC3)c(C)cc2S1(=O)=O (single isomer, unassigned) [Example 357, (*R)-3-(3-(difluoromethyl)-8-methyl-[1,2,4]triazolo[4,3-a]pyridin-7-yl)-2,2-dimethyl-3-(5-methyl-6-((8′-methyl-1′,1′-dioxido-7′-(2-(piperidin-1-yl)ethoxy)spiro[cyclopropane-1,4′-pyrido[2,3-b][1,4,5]oxathiazepin]-2′(3′H)-yl)methyl)pyridin-2-yl)propanoic Acid]
- EC50 [1]: 452 nM
- Kd [2]: < 1 nM

SMILES: Cc1ccc([C@H](c2ccn3c(C4CC4)nnc3c2C)C(C)(C)C(=O)O)cc1CN1CC2(CCOCC2)Oc2ncccc2S1(=O)=O (single isomer, unassigned) [Example 42, (*R)-3-(3-Cyclopropyl-8-methyl-[1,2,4]triazolo[4,3-a]pyridin-7-yl)-3-(3-((1′,1′-dioxido-2,3,5,6-tetrahydrospiro[pyran-4,4′-pyrido[2,3-b][1,4,5]oxathiazepin]-2′(3′H)-yl)methyl)-4-methylphenyl)-2,2-dimethylpropanoic Acid]
- EC50 [1]: 3460 nM
- Kd [2]: 7540 nM

SMILES: Cc1cc2cc(C(CC(=O)O)c3ccc(C)c(CN4C[C@@H]5CCCCN5c5ncccc5S4(=O)=O)c3)n(C)c2nn1 (mixture of isomers) [Example 440, 3-(3,7-Dimethyl-7H-pyrrolo[2,3-c]pyridazin-6-yl)-3-(3-(((S)-5,5-dioxido-7,7a,8,9,10,11-hexahydro-6H-dipyrido[2,1-d:2′,3′-f][1,2,5]thiadiazepin-6-yl)methyl)-4-methylphenyl)propanoic Acid]
- EC50 [1]: 714 nM
- Kd [2]: < 1 nM

SMILES: Cc1ccc([C@H](CC(=O)O)c2ccn3c(C(F)(F)F)nnc3c2C)nc1CN1CC2(CC2)Oc2ncc(F)cc2S1(=O)=O (single isomer, unassigned) [Example 510, (*R)-3-(6-((8′-Fluoro-1′,1′-dioxidospiro[cyclopropane-1,4′-pyrido[2,3-b][1,4,5]oxathiazepin]-2′(3′H)-yl)methyl)-5-methylpyridin-2-yl)-3-(8-methyl-3-(trifluoromethyl)-[1,2,4]triazolo[4,3-a]pyridin-7-yl)propanoic Acid]
- EC50 [1]: 314 nM
- Kd [2]: < 1 nM

SMILES: Cc1cnc2c(c1)S(=O)(=O)N(Cc1nc([C@H](c3ccn4c(C(F)F)nnc4c3C)C(C)(C)C(=O)O)ccc1C)CC1(CNC1)O2 (single isomer, unassigned) [Example 631, (*R)-3-(3-(Difluoromethyl)-8-methyl-[1,2,4]triazolo[4,3-a]pyridin-7-yl)-2,2-dimethyl-3-(5-methyl-6-((8′-methyl-1′,1′-dioxidospiro[azetidine-3,4′-pyrido[2,3-b][1,4,5]oxathiazepin]-2′(3′H)-yl)methyl)pyridin-2-yl)propanoic Acid]
- EC50 [1]: 76.8 nM
- Kd [2]: 1.08 nM

SMILES: Cc1cnc2c(c1)S(=O)(=O)N(Cc1cc([C@H](CC(=O)O)c3ccn4c(C(F)(F)F)nnc4c3C)cnc1C)CC1(CC1)O2 (single isomer, unassigned) [Example 565, (*R)-3-(8-Methyl-3-(trifluoromethyl)-[1,2,4]triazolo[4,3-a]pyridin-7-yl)-3-(6-methyl-5-((8′-methyl-1′,1′-dioxidospiro[cyclopropane-1,4′-pyrido[2,3-b][1,4,5]oxathiazepin]-2′(3′H)-yl)methyl)pyridin-3-yl)propanoic Acid]
- EC50 [1]: > 20000 nM
- Kd [2]: 59.4 nM
